Tests used:
Assay type in all cases: in vivo
[1] = test system: Abutilon theophrasti (ABUTH); test: B. Herbicidal post-emergence efficacy, ABUTH; details: rated visually after about 3 weeks
In short: (§1)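 First, seeds were sown in sandy loam and grown 2 to 3 weeks under controlled greenhouse conditions. Next, foliage at the one-leaf stage received the formulated compound in water with 0.5% additive (600 L/ha, 1280 g/ha or less). Finally, damage was rated visually after about 3 weeks against untreated plants.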

[2] = test system: Digitaria sanguinalis (DIGSA); test: B. Herbicidal post-emergence efficacy, DIGSA; details: rated visually after about 3 weeks
In short: as §1

[3] = test system: Setaria viridis (SETVI); test: B. Herbicidal post-emergence efficacy, SETVI
In short: as §1

[4] = test system: Stellaria media (STEME); test: B. Herbicidal post-emergence efficacy, STEME
In short: as §1

[5] = test system: Echinochloa crus-galli (ECHCG); test: C. Herbicidal pre-emergence efficacy, ECHCG; details: scored after about 3 weeks
In short: (§2)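 Pre-emergence test: formulated compounds sprayed as aqueous suspension or emulsion with 0.5% additive at 600 l/ha onto soil covering sown seeds, at rates corresponding to 320 g/ha or less. After about 3 weeks in greenhouse, efficacy scored visually as percent versus untreated controls (100% = plants dead).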

[6] = test system: Polygonum convolvulus (POLCO); test: C. Herbicidal pre-emergence efficacy, POLCO; details: scored after about 3 weeks
In short: as §2

[7] = test system: Kochia scoparia (KCHSC); test: C. Herbicidal pre-emergence efficacy, KCHSC
In short: as §2

[8] = test system: Triticum aestivum (TRZAS); test: D. Pre-emergence effect on useful plants, TRZAS; details: useful plant
In short: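 Seeds sown in pots and covered with soil; WP or EC formulations sprayed on the soil surface as aqueous suspension/emulsion with 0.5% additive at 600 l/ha water. Plants grown in greenhouse; crop damage scored visually after about 3 weeks as % versus untreated controls (100% = dead, 0% = like control).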

[9] = test system: Pharbitis purpurea (PHBPU); test: E. Herbicidal post-emergence efficacy, PHBPU
In short: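 Greenhouse post-emergence spray, one-leaf stage (2–3 wk after sowing, sandy loam); WP/EC formulation, aqueous + 0.5% additive, 600 l/ha water; rates 320 g/ha or less. Visual rating ~3 wk later vs untreated; 0% = control-like, 100% = dead.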

Row | Pre-emergence efficacy against TRZAS in % ([8]; application rate 80 g/ha) [%] | Pre-emergence efficacy against TRZAS in % ([8]; application rate 320 g/ha) [%] | Structure (SMILES) | Post-emergence efficacy against ABUTH in % ([1]; 80 g/ha) [%] | Post-emergence efficacy against ABUTH in % ([1]; 320 g/ha) [%] | Post-emergence efficacy against ABUTH in % ([1]; 1280 g/ha) [%] | Post-emergence efficacy against DIGSA in % ([2]; 320 g/ha) [%] | Post-emergence efficacy against DIGSA in % ([2]; 1280 g/ha) [%] | Post-emergence efficacy against SETVI ([3]; 320 g/ha) [%] | Post-emergence efficacy against SETVI ([3]; 1280 g/ha) [%] | Post-emergence efficacy against STEME ([4]; 80 g/ha) [%] | Post-emergence efficacy against STEME ([4]; 320 g/ha) [%] | Post-emergence efficacy against STEME ([4]; 1280 g/ha) [%] | Pre-emergence efficacy against ECHCG ([5]; 320 g/ha) [%] | Pre-emergence efficacy against POLCO ([6]; 320 g/ha) [%] | Pre-emergence efficacy against KCHSC in % ([7]; application rate 80 g/ha) [%] | Pre-emergence efficacy against KCHSC in % ([7]; application rate 320 g/ha) [%] | Post-emergence efficacy against PHBPU in % ([9]; application rate 80 g/ha) [%] | Post-emergence efficacy against PHBPU in % ([9]; application rate 320 g/ha) [%] | Pre-emergence efficacy against ECHCG ([5]; 80 g/ha) [%] | Pre-emergence efficacy against POLCO ([6]; 80 g/ha) [%]
1 | 0 | 10 | O=S(=O)(CCC(F)(F)F)Oc1c(Cl)cccc1Oc1ncc(Br)cn1 [Example I-32] | 100 | 100 | 100 | 90 | 100 | 90 | 100 | 100 | 100 | 100 | 90 | 100 | 100 | 100 | 80 | 80 |  | 
2 | 0 | 0 | C=CCS(=O)(=O)Oc1ccccc1Oc1ncc(Cl)cn1 [Example I-36] |  |  |  |  |  |  | 90 |  |  | 100 | 80 | 90 |  | 100 |  |  |  | 
3 | 0 |  | O=S(=O)(CCC(F)(F)F)Oc1c(Cl)cccc1Oc1ncc(Cl)cn1 [Example I-38] |  |  |  |  | 90 |  | 90 | 90 | 90 | 90 | 100 | 100 | 100 | 100 | 100 | 100 | 100 | 100
4 | 0 |  | O=S(=O)(CCC(F)(F)F)Oc1c(Br)cccc1Oc1ncc(F)cn1 [Example I-43] |  | 90 | 100 |  |  |  |  |  | 100 | 100 | 90 | 90 | 100 | 100 | 80 | 90 |  | 90
5 | 0 |  | C=CCCS(=O)(=O)Oc1c(F)cccc1Oc1ncc(Cl)cn1 [Example I-50] |  | 90 | 90 |  | 90 |  | 90 |  |  |  | 100 | 90 | 90 | 100 | 90 | 90 | 80 | 80
6 | 0 |  | COCCS(=O)(=O)Oc1c(F)cccc1Oc1ncc(Cl)cn1 [Example I-52] |  |  | 90 |  | 90 |  | 90 |  |  | 90 | 100 | 100 | 100 | 100 |  |  | 100 | 90
7 | 0 |  | O=S(=O)(CCC1CC1)Oc1c(F)cccc1Oc1ncc(Cl)cn1 [Example I-55] | 90 | 90 | 90 | 90 | 90 | 90 | 90 | 90 | 90 | 90 | 100 | 90 | 80 | 100 | 90 | 100 | 90 | 90
8 | 0 | 10 | O=S(=O)(CCCC(F)(F)C(F)(F)F)Oc1c(F)cccc1Oc1ncc(Cl)cn1 [Example I-68] | 100 | 100 | 100 | 90 | 100 | 90 | 90 | 90 | 100 | 100 | 90 | 90 | 100 | 100 | 80 | 90 |  | 90
9 | 0 | 20 | O=S(=O)(CCC(F)=C(F)F)Oc1c(Cl)cccc1Oc1ncc(Cl)cn1 [Example I-73] | 90 | 100 | 100 | 90 | 100 |  | 90 | 90 | 100 | 100 | 90 | 90 |  | 100 |  |  |  | 
10 | 0 |  | Cc1cccc(Oc2ncc(Cl)cn2)c1OS(=O)(=O)CC1CC(F)(F)C1 [Example I-74] | 100 | 100 | 100 | 90 | 100 |  | 100 | 100 | 100 | 100 | 100 | 90 |  | 90 |  | 90 |  | 

Row | Structure (SMILES) | Pre-emergence efficacy against TRZAS in % ([8]; application rate 80 g/ha) [%] | Pre-emergence efficacy against TRZAS in % ([8]; application rate 320 g/ha) [%] | Post-emergence efficacy against ABUTH in % ([1]; 80 g/ha) [%] | Post-emergence efficacy against ABUTH in % ([1]; 320 g/ha) [%] | Post-emergence efficacy against ABUTH in % ([1]; 1280 g/ha) [%] | Post-emergence efficacy against DIGSA in % ([2]; 320 g/ha) [%] | Post-emergence efficacy against DIGSA in % ([2]; 1280 g/ha) [%] | Post-emergence efficacy against SETVI ([3]; 320 g/ha) [%] | Post-emergence efficacy against SETVI ([3]; 1280 g/ha) [%] | Post-emergence efficacy against STEME ([4]; 80 g/ha) [%] | Post-emergence efficacy against STEME ([4]; 320 g/ha) [%] | Post-emergence efficacy against STEME ([4]; 1280 g/ha) [%] | Pre-emergence efficacy against ECHCG ([5]; 320 g/ha) [%] | Pre-emergence efficacy against POLCO ([6]; 320 g/ha) [%] | Pre-emergence efficacy against KCHSC in % ([7]; application rate 80 g/ha) [%] | Pre-emergence efficacy against KCHSC in % ([7]; application rate 320 g/ha) [%] | Post-emergence efficacy against PHBPU in % ([9]; application rate 80 g/ha) [%] | Post-emergence efficacy against PHBPU in % ([9]; application rate 320 g/ha) [%] | Pre-emergence efficacy against ECHCG ([5]; 80 g/ha) [%] | Pre-emergence efficacy against POLCO ([6]; 80 g/ha) [%]
11 | O=S(=O)(CCCC(F)(F)F)Oc1c(Cl)cccc1Oc1ncc(Br)cn1 [Example I-34] | 0 | 0 | 90 | 100 | 100 |  | 100 |  | 90 | 100 | 100 | 100 | 90 | 100 | 90 | 100 | 80 | 100 |  | 
12 | O=S(=O)(CCCC(F)(F)F)Oc1c(F)cccc1Oc1ncc(Br)cn1 [Example I-41] | 20 |  |  |  |  | 90 | 90 | 90 | 90 | 90 | 90 | 90 | 100 | 100 | 100 | 100 | 100 | 100 | 100 | 100
13 | N#Cc1cccc(Oc2ncc(Cl)cn2)c1OS(=O)(=O)CCCC(F)(F)F [Example I-81] | 0 |  |  |  |  |  |  |  |  |  |  |  | 100 | 90 | 100 | 100 | 90 | 100 |  | 80

Source: patent US20240174618A1, “SUBSTITUTED (2-HETEROARYLOXYPHENYL)SULFONATES, SALTS THEREOF AND THEIR USE AS HERBICIDAL AGENTS” (Bayer Aktiengesellschaft, priority 2021, published 2024)
